Test results published in patent US20050106152A1, “Preventives/remedies for cancer” (priority 2001, published 2005).

Key:
SUV39H1 = experiment: quantitative PCR of SUV39H1 expression (RNA) after antisense oligonucleotide transfection; assay type: cell-based, human; conditions: MDA-MB-231 cells, 7 hours after transfection, compared to control (reverse) oligonucleotide (100%)
Source text: First, the antisense (SEQ ID NO: 4) to the full-length sequence shown by SEQ ID NO: 3 was designed. Thereafter, phosphorothioated oligonucleotide was synthesized, purified on HPLC and used for the transfection test (Amersham Pharmacia Biotech). For control oligonucleotide, a reverse sequence (SEQ ID NO: 5) of the base sequence represented by SEQ ID NO: 4 was likewise phosphorothioated, purified on HPLC and used for the test (Amersham Pharmacia Biotech).
Breast cancer cell line MDA-MB-231 (In Vitro, 14 (11), 911-915, 1978, purchased from ATCC) was used as cells to be tested and on the day before transfecting the oligonucleotide, the cells were plated in 18×10^3 on a 24-well plate (manufactured by Falcon). To transfect the oligonucleotide, OligofectAMINE (manufactured by Invitrogen) was used to follow its protocol. In accordance with the protocol of RNeasy mini kit (manufactured by Qiagen), RNA was extracted 7 hours after the transfection and cDNA was prepared using TaqMan Reverse Transcription Reagents (manufactured by Applied Biosystems). Using 2 primers (SEQ ID NO: 6 and SEQ ID NO: 7) and probe (SEQ ID NO: 8; Amersham Pharmacia Biotech), quantitative PCR was carried out by ABI PRISM TM 7700 Sequence Detector (manufactured by Applied Biosystems). […]

[1] = system: Breast cancer cell line MDA-MB-231; experiment: apoptosis by cell death detection ELISA after antisense oligonucleotide transfection; assay type: cell-based, human; conditions: MDA-MB-231 cells, 3 days after transfection, compared to control (100%)

antisense: phosphorothioated antisense oligonucleotide (SEQ ID NO: 4) to the full-length SUV39H1 sequence shown by SEQ ID NO: 3 (antisense ATGCGTCCCAGATGGCTGCG; all phosphorothioate, sugars by position and methylation of C not given here)
expression (RNA) of SUV39H1 (SUV39H1): 70%
apoptosis [1]: 213%
